Results taken from patent US4845080A, “Human calcitonin peptide with salmon calcitonin-like characteristics” (Ciba-Geigy Corporation, priority 1983, dated 1989).

How the values were obtained:
[1] = target: antibody serum to synthetic sCT; assay: Radioimmunoassay with antibodies to synthetic sCT, inhibition of [125I]sCT binding; set-up: species or system goat
Description: The concentration of hCT 2 is determined radioimmunologically in a concentration series. 10, 20, 50 and 100 μl, respectively, of the HPLC fractions, which have been aftertreated as described above, are preincubated for 3 days at 4° C. together with 100 μl of antibody serum to synthetic sCT (Sandoz AG, Basle, Switzerland) in an immunoassay buffer with a total volume of 300 μl (immunoassay buffer: 0.05M phosphate, pH 7.5, 10% of human serum containing no detectable amounts of immunoreactive sCT), and, after the addition of 200 μl of assay buffer having 15,000 dpm of [^125 I]sCT (specific activity 600 Ci/mmol), subsequently incubated for a further 3 days at 4° C. The labelling of sCT with ^125 I is performed with Chloramin-T (Eastman Kodak, Rochester, USA) essentially according to the method of W. M. Hunter and F. C.
The above-mentioned antibody serum is obtained as follows: The antibodies are produced in a 25 kg goat after primary immunisation with 200 μg of sCT (see above) as antigen, and reimmunisation with 100 μg of the same antigen 30 days after the primary immunisation. For immunisation, sCT is dissolved in 0.01M acetic acid (1 mg/ml), the solution is mixed with 2 percent by weight of solid aluminium hydroxide (Alhydrogel, Superfos Export Co. a/s Copenhagen, Denmark) and the mixture is suspended in an equal volume of complete Freund's adjuvant (Difco Laboratories, Detroit, Mich., USA). This suspension is produced in an Omnimixer (Sorvall) at 4° C. at the maximum mixing rate. 0.5-1.0 ml of suspension is drawn up into disposable syringes (Primo 1 ml, Asik I/S, Denmark), and administered on each leg subcutaneously in the region of the subaxillary lymph nodes. Ten days after the abovementioned reimmunisation, 50-80 ml of blood containing the desired antibodies against sCT are withdrawn from the jugular vein into heparinised tubes, and the plasma obtained is stored at -20° C. in 3-5 ml portions.
(§1) The quantity of antibodies obtained is estimated by measurement of the binding of the withdrawn plasma to [^125 I] sCT. Antibody-bound and free [^125 I]sCT are separated by means of charcoal coated with dextran, in the main according to the method of V. Herbert, K.-S. Lau, C. W. Gottlieb and S. J. Bleicher [J. Clin. Endocrinol. Metab. 25, 1375-1384 (1965)]. The same method is used for the detection of antibodies in human serum.

[2] = Detection of antibodies able to react with sCT in human serum (binding to [125I]sCT); settings: verified with radioimmunoassay
Text: (c) in the human serum no initiation of the formation of detectable amounts of antibodies which are able to react with sCT, the binding to [^125 I]sCT having a specific activity of 600 Ci/mmol being used for verfying this evidence;
The substance hCT 2 differs from the known hCT in the aforementioned HPLC system by virtue of a clearly different retention time; on the other hand, hCT 2 has a retention time practically identical to that of sCT. In the aforementioned gel system, the elution volume of hCT 2 differs from that of hCT, but is practically identical to that of sCT. These facts indicate that hCT 2 with respect to the amino acid composition, even though not necessarily with respect to the amino acid sequence, is more closely related to sCT than to hCT. With regard to immunology, however, hCT 2 differs greatly from sCT.
as §1

| half maximum inhibition of the binding of [125I]sCT to the antibodies ([1]; antibody final dilution 1:25,000, 15,000 dpm [125I]sCT, 4° C., amount per tube) | concentration at which the antibodies react with sCT compared with hCT, which they do not recognise ([1]; lower concentration for sCT) | half maximum inhibition of the binding of [125I]sCT to the antibodies ([1]; same value given in pmol) [pmol] | SMILES | amount not giving comparable (half maximum) inhibition of the binding of [125I]sCT to the antibodies ([1]; antibody final dilution 1:25,000) [µg] | formation of antibodies in the human serum [2] |
| --- | --- | --- | --- | --- | --- |
| – | – | – | CC[C@H](C)[C@H](NC(=O)[C@H](C)NC(=O)[C@@H](NC(=O)[C@H](CCC(N)=O)NC(=O)[C@@H]1CCCN1C(=O)[C@H](Cc1ccccc1)NC(=O)[C@@H](NC(=O)[C@H](Cc1c[nH]cn1)NC(=O)[C@H](Cc1ccccc1)NC(=O)[C@H](CCCCN)NC(=O)[C@H](CC(N)=O)NC(=O)[C@H](Cc1ccccc1)NC(=O)[C@H](CC(=O)O)NC(=O)[C@H](CCC(N)=O)NC(=O)[C@@H](NC(=O)[C@H](Cc1ccc(O)cc1)NC(=O)[C@@H](NC(=O)CNC(=O)[C@H](CC(C)C)NC(=O)[C@H](CCSC)NC(=O)[C@@H]1CSSC[C@H](N)C(=O)NCC(=O)N[C@@H](CC(N)=O)C(=O)N[C@@H](CC(C)C)C(=O)N[C@@H](CO)C(=O)N[C@@H]([C@@H](C)O)C(=O)N1)[C@@H](C)O)[C@@H](C)O)[C@@H](C)O)[C@@H](C)O)C(=O)NCC(=O)N[C@H](C(=O)NCC(=O)N[C@@H](C)C(=O)N1CCC[C@H]1C(N)=O)C(C)C [hCT, human calcitonin-(1-32)] | > 10 | – |
| about 100 pg | ≤ 10^5 fold | 0.03 | CC(C)C[C@H](NC(=O)[C@H](CCCCN)NC(=O)CNC(=O)[C@H](CC(C)C)NC(=O)[C@@H](NC(=O)[C@@H]1CSSC[C@H](N)C(=O)N[C@@H](CO)C(=O)N[C@@H](CC(N)=O)C(=O)N[C@@H](CC(C)C)C(=O)N[C@@H](CO)C(=O)N[C@@H]([C@@H](C)O)C(=O)N1)C(C)C)C(=O)N[C@@H](CO)C(=O)N[C@@H](CCC(N)=O)C(=O)N[C@@H](CCC(=O)O)C(=O)N[C@@H](CC(C)C)C(=O)N[C@@H](Cc1c[nH]cn1)C(=O)N[C@@H](CCCCN)C(=O)N[C@@H](CC(C)C)C(=O)N[C@@H](CCC(N)=O)C(=O)N[C@H](C(=O)N[C@@H](Cc1ccc(O)cc1)C(=O)N1CCC[C@H]1C(=O)N[C@@H](CCCNC(=N)N)C(=O)N[C@H](C(=O)N[C@@H](CC(N)=O)C(=O)N[C@H](C(=O)NCC(=O)N[C@@H](CO)C(=O)NCC(=O)N[C@H](C(=O)N1CCC[C@H]1C(N)=O)[C@@H](C)O)[C@@H](C)O)[C@@H](C)O)[C@@H](C)O [sCT, salmon calcitonin-(1-32)] | – | produces in the human serum an antibody response |
